Five compounds from US12492174B2, “Morpholine-3-carboxamide derivatives as prostaglandin E2 receptor 4 (EP4) agonists for the treatment of gastrointestinal and pulmonary diseases” (NXERA PHARMA UK LIMITED, priority 2022, dated 2025) can be followed below.

Bounds are passed on as bounds.

One data set deals with T1, human EP4 (Homo sapiens, UniProt P35408).
T1 construct: expressed in transfected cells; host or cells: HEK293 cells transduced with EP4 BacMam virus
Briefly: cAMP Gs functional assay (HTRF cAMP dynamic-2). It counts as cell-based. The settings on record: for Emax: HEK293, HEK293 cells transfected with EP4 Bacmam virus, positive control 10 uM PGE2; for EC50: HEK293 cells transfected with EP4 Bacmam virus, 30 mins at 37° C., −Log of the molarity (M), read-out: cAMP human EP4 pEC50 (converted). As for the experimental part: Cloning, Baculovirus generation, large scale infection of HEK293 cells and membrane preparation: Human prostaglandin E2 receptor 4 (EP4) was cloned into pBacMam expression vector (GeneScript, UK). Transposition of EP4 DNA was performed using Invitrogen's Bac-to-Bac Baculovirus Expression Systems. P0 baculovirus was generated by transfecting SF9 Cells with bacmid DNA using Cellfectin II transfection reagent (ThermoFisher Scientific, UK). Following P0 generation P1 virus was then generated ready for large scale infection and membrane preparation. HEK293 cells were grown in DMEM (ThermoFisher Scientific, UK), supplemented with 10% heat inactivated fetal bovine serum (FBS). Cells were infected at a seeding density of 3.5 million cells/mL in 500 cm^3 flasks at 5% v/v EP4 Bacman. Expression was carried out over a 36 hr period at 37° C. with 5% CO2. The cells were removed using PBS and a cell scrapper. The cell culture was centrifuged at 2500 RPM for 10 mins at 4° C. The supernatant was then poured off and the pellet stored at −80° C. The pellet was defrosted and re-suspended in 15 mL of homogenising buffer (20 mM HEPES, 10 mM EDTA, pH 7.4). Then homogenised in mechanical homogeniser (VMR) for 10 seconds. The membrane was centrifuged in centrifuge tubes at 40,000 g for 15 mins at 4° C. The supernatant was poured away and re-suspended in 15 mL of homogenising buffer. Homogenised for 20 seconds. The membrane was centrifuged at 40,000 g for 45 mins at 4° C. The membrane was re-suspended in 3 mL of storage buffer (20 mM HEPES, 0.1 mM EDTA, pH 7.4) mixing well. The resulting membranes were then stored at −80° C.
cAMP Gs Functional Assay: cAMP production following EP4 receptor activation was determined using the Homogeneous Time-Resolved Fluorescence (HTRF) cAMP dynamic-2 assay (Cisbio, France). HEK293 cells were transfected using a 0.5% EP4 Bacmam virus for 36 hours, before dissociating the cells, and freezing at −150° C.
On the day of testing, increasing concentration of test compounds, alongside positive controls (10 uM PGE2 (Tocris, Abingdon, UK)) and negative control (DMSO (Sigma-Aldrich, UK) were added to a ProxiPlate-384 Plus, White 384-shallow well Mircoplate, (PerkinElmer, USA) using the ECHO dispense.
Cells were defrosted in a water bath and resuspended in DMEM supplemented with 10% FBS before centrifuging at 1200 RPM for 5 mins to form a pellet. The pellet was resuspended in assay buffer (DMEM+0.5 mM IBMX (Tocris, Abingdon, UK)) to 0.5×10^6 cells/mL. Cell suspension, for a final assay concentration of 5000 cell/well was added using the multidrop to the pre-dispensed assay plate. The plate was then incubated at 37° C. for 30 mins, with 5% CO2. The cAMP production was determined as manufacturer's instructions, before plates were read on a PheraStar fluorescence plate reader (BMG LabTech, Germany).
The pEC50 values (−Log of the molarity (M) in mol/liter) were calculated from the mid-point of the curve using dotmatics as shown in Table 3.
On the technique in general: In TR-FRET formats the signal depends on donor and acceptor labels being close together.

A short description of data set [1]: Unidirectional Caco-2 cell permeability assay. The data set is classed as in vitro ADME. To be noted: human, n=2, apical pH 6.5, basolateral pH 7.4, 1 hour, 37° C. As for the experimental part: Caco-2 cells (ECACC) were seeded onto 24-well Transwell plates at 2×10^5 cells per well and used in confluent monolayers after a 21 day culture at 37° C. under 5% CO2. Test compounds were incubated at 10 μM, 0.2% DMSO final, n=2 in assay buffer (Hanks balanced salt solution supplemented with 25 mM HEPES, adjusted to pH 6.5). Hanks balanced salt solution supplemented with 25 mM HEPES, adjusted to pH 7.4 (0.2% DMSO final) was used for the basolateral chamber (as receiver).
Incubations were performed at 37° C., with samples removed from both donor and acceptor chambers at T=0 and 1 hour and compound analysed by mass spectrometry (LC-MS/MS) including an analytical internal standard (0.5 μM carbamazepine).
Apparent permeability (Papp) values are shown in Table 4 and were determined from the relationship:
Where V is the volume of each Transwell compartment (apical 125 μL, basolateral 600 μL), and concentrations are the relative MS responses for compound (normalized to internal standard) in the donor chamber before incubation and acceptor chamber at the end of the incubation Area=area of cells exposed for drug transfer (0.33 cm^2).
Lucifer Yellow (LY) was added to the apical buffer in all wells to assess viability of the cell layer. As LY cannot freely permeate lipophilic barriers, a high degree of LY transport indicates poor integrity of the cell layer and wells with a LY Papp>10×10^−6 cm/s were rejected.
Compound recovery from the wells was determined from MS responses (normalized to internal standard) in donor and acceptor chambers at the end of incubation compared to response in the donor chamber pre-incubation.
On the technique in general: Caco-2 cells form a polarised layer with tight junctions and transporters.

T1 sequence (P35408 whole entry): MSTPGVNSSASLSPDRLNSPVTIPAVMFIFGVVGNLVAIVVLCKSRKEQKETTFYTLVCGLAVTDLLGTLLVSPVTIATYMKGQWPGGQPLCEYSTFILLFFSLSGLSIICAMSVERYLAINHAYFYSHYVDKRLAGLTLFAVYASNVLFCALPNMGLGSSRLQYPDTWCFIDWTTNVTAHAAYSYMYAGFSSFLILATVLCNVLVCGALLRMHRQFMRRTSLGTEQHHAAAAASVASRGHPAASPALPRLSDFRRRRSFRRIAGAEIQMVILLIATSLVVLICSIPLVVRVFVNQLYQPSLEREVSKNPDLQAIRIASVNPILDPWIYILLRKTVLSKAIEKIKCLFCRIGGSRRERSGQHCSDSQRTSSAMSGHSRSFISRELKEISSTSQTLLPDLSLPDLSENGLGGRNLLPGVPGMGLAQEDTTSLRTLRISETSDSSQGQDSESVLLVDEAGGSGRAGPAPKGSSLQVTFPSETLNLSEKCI

Turning to `Cc1cc(C(N)=O)ccc1-c1cncc(CN2CCOC[C@@H]2C(=O)N[C@@H](C)c2ccc(C(=O)O)cc2)c1` [Example 1, 4-((S)-1-((R)-4-((5-(4-carbamoyl-2-methylphenyl)pyridin-3-yl)methyl)morpholine-3-carboxamido)ethyl)benzoic acid], on human EP4, the Emax is 96% and the EC50 was 1e-08 M. The same compound gave a Papp A→B at 1 h, 10 μM in data set [1] of 0.24 ×10⁻⁶ cm/s.

With `Cc1cc(S(N)(=O)=O)ccc1-c1cc(CN2CCOC[C@@H]2C(=O)N[C@@H](C)c2ccc(C(=O)O)cc2)ccn1` [Example 16, 4-[(1S)-1-[[(3R)-4-[[2-(2-methyl-4-sulfamoyl-phenyl)-4-pyridyl]methyl]morpholine-3-carbonyl]amino]ethyl]benzoic acid], at human EP4, the Emax is 97% and the EC50 was 1.26e-07 M. This compound came in with a Papp A→B at 1 h, 10 μM in data set [1] of less than 0.1 ×10⁻⁶ cm/s.

As for `Cc1cc(S(N)(=O)=O)ccc1-c1ccnc(CN2CCOC[C@@H]2C(=O)N[C@@H](C)c2ccc(C(=O)O)cc2)c1` [Example 17, 4-[(1S)-1-[[(3R)-4-[[4-(2-methyl-4-sulfamoyl-phenyl)-2-pyridyl]methyl]morpholine-3-carbonyl]amino]ethyl]benzoic acid], at human EP4, the Emax was 98%. The Papp A→B at 1 h, 10 μM in data set [1] amounted to 0.12 ×10⁻⁶ cm/s.

With `Cc1cc(C(N)=O)ccc1-c1cc(O)cc(CN2CCOC[C@@H]2C(=O)N[C@@H](C)c2ccc(-c3nnn[nH]3)cc2)c1` [Example 36, (R)—N-((S)-1-(4-(1H-tetrazol-5-yl)phenyl)ethyl)-4-((4′-carbamoyl-5-hydroxy-2′-methyl-[1,1′-biphenyl]-3-yl)methyl)morpholine-3-carboxamide], at human EP4, the Emax was determined as 96% and the EC50 was 2.51e-10 M. The compound further had a Papp A→B at 1 h, 10 μM in data set [1] of 0.11 ×10⁻⁶ cm/s.

Regarding `NC(=O)c1ccc(-c2cccc(CN3CCOC[C@@H]3C(=O)NC3(c4ccc(C(=O)O)cc4)CC3)c2)c(O)c1` [Example 32, (R)-4-(1-(4-((4′-carbamoyl-2′-hydroxy-[1,1′-biphenyl]-3-yl)methyl)morpholine-3-carboxamido)cyclopropyl)benzoic acid], at human EP4, the Emax amounted to 91% and the EC50 is 6.31e-10 M. Moreover, the Papp A→B at 1 h, 10 μM in data set [1] was found to be 0.15 ×10⁻⁶ cm/s.

For orientation: Emax means the size of the effect at its maximum, as opposed to the concentration needed. For orientation: Papp A→B means the apparent permeability from the apical to the basolateral side of a cell layer. Low values mean poor permeation, high ones ready permeation.
